Measured values reported in US20040120949A1, “Compositions and methods for treating cancer using cytotoxic CD44 antibody immunoconjugates and radiotherapy” (Boehringer Ingelheim International GmbH, priority 2002, published 2004).
“And” between values parts separate entries of the source, which are not always exact repeats. Equal values may be shown once.

Key:
[1] = tested on: antigen-positive FaDu cells; experiment: In vitro binding to FaDu cells by FACS; conditions: on ice 1 hour, FITC-labeled anti-human IgG, read-out: apparent KD
Procedure: The binding of BIWA 4 antibody and BIWI 1 conjugate to antigen-positive FaDu cells was determined. Cells (1−2×10^−5) were incubated in 96-well plates with varying concentrations of antibody or conjugate on ice for 1 hour. The test article was washed from the plate and FITC-labeled anti-human IgG was added and the incubation on ice was continued in the dark for 1 hour. After washing, the cells were fixed with 1% paraformaldehyde and analyzed on a fluorescence activated cell sorter (FACS).

[2] = Tolerability in tumor-bearing nude mice; type: in vivo
Procedure: (§1) BIWI 1, BIWA 4 and phosphate buffered saline (PBS) were applied intravenously (i.v.) in one of the tail veins. BIWI 1 was applied in doses of 50 μg and 100 μg DM1/kg body weight (b.w.)/d. Control animals were treated either with BIWA 4 (antibody control, 7 mg/kg b. w./d) or PBS.
(§2) Animals: The experiments were performed using 7-14 week old male and female NMRI (nu/nu) mice from the specific pathogen-free animal breeding facility of the Experimental Center of the Medical Faculty of the University of Dresden. The animal facilities and the experiments were approved according to the German animal welfare regulations. The microbiological status of the animals was regularly checked by the veterinarians of the facility. The animal rooms provided day light plus a 12 h light-12 h dark electric cycle (light-on time 07.00 a.m.) and a constant temperature of 26° C. and relative humidity of 50-60%. The animals were fed a commercial laboratory animal diet and water ad libitum. To immunosuppress the nude mice further, they were whole-body irradiated 2 days before tumor transplantation with 4 Gy using 200 kV X-rays (0.5 mm Cu) at a dose rate of about 1 Gy/min.
(§3) Combination of BIWI 1 with fractionated irradiation: Local irradiations were given under ambient conditions without anaesthesia to air breathing animals (200 kV X-rays, 0.5 mm Cu, at a dose rate of 1.1 Gy/min). Up to five animals were irradiated simultaneously in specially designed jigs. For the treatments, the mice were immobilised in a plastic tube fixed on a lucite plate. The tumor-bearing leg was held positioned in the irradiation field by a foot-holder distal to the tumor. Tumor volume at the start of irradiation were around 100 mm^3. Tumors were irradiated with 5 fractions of 4 Gy in 5 days. The animals were randomized over the experimental matrix in groups of 5, aiming for about 15 animals (range 14 to 15 animals) for each treatment group. Irradiation protocols were started every second day. Animals received either BIWI 1 (50 μg DM1/kg/d), BIWI 1 (100 μg DM1/kg/d), BIWA 4 (7 mg/kg/d) or PBS two hours after each irradiation for 5 consecutive days. The report includes data obtained from a total of 59 irradiated tumors. In addition, 57 unirradiated FaDu tumors were treated with BIWI 1 (50 μg/kg/d), BIWI 1 (100 μg/kg/d), BIWA 4 (7 mg/kg/d) or PBS for 5 consecutive days.

[3] = tested on: human FaDu SCC; experiment: Tumor growth delay and local control of FaDu tumors in nude mice, drug alone or with fractionated irradiation; type: in vivo, NMRI (nu/nu) mice; conditions: for Growth delay to 5 times the starting volume (tν5) / Growth delay to 10 times the starting volume (tV10): median
Procedure: as §1, §2
Tumor: FaDu is an established human hypopharyngeal squamous cell carcinoma line, kept in high passage by the American Type Culture Collection (Rockville, Md.). In nude mice FaDu grows as an undifferentiated carcinoma with a volume doubling time (VDT) between 100 mm^3 and 400 mm^3 of about 4 days. […] For the experiments small tumor pieces were transplanted subcutaneously (s.c.) into the right hindleg of anaesthetised mice.
as §3
Determinations of tumor volume and tumor growth delay: Animals were observed until the mean diameter of the untreated or recurrent tumors exceeded 12-15 mm, until death or until day 120 after end of treatment. Animals that appeared to suffer were killed before reaching these endpoints. Tumor diameters were measured every second day. Tumor volumes were determined by the formula of a rotational ellipsoid π/6×a×b^2, where a is the longest and b is the perpendicular shorter tumor axis. Conversion of tumor volumes to tumor mass (mg) was performed by a calibration curve based on excision weights. Tumor growth delay was determined from individual growth curves as the time that a regrowing tumor needed to reach 5 and 10 times the start volume (tv5, tv10).
Statistics: Medians and 95% confidence intervals (CI) of the tumor growth delay were calculated according to Sachs (Angewandte Statistik, 7. Aufl., Springer 1992). Experimental groups were compared using the Mann-Whitney-U test and a commercial software package (SPSS for Windows 9.0, SPSS Inc., 1999).

[4] = tested on: CD44v6; experiment: Antigen binding affinity of humanised VFF-18 versions; design: species or system human
[5] = Biodistribution and tumor uptake in vivo
[6] = tested on: cells in vitro; conditions: free drug; cited from earlier work
[7] = target: CD44v6 on antigen-positive FaDu cells (human) (UniProt P16070); experiment: flow cytometry (FACS) on antigen-positive FaDu cells, FITC-labeled anti-human IgG detection; apparent KD
[8] = BIWA 4 7 mg/kg/d + fractionated irradiation
[9] = BIWA 4 7 mg/kg/d i.v. x5 days, no irradiation
[10] = BIWA 4 7 mg/kg/d x5 days + fRT (5x4 Gy)
[11] = 50 μg DM1/kg b.w./d alone, no irradiation
[12] = 50 μg DM1/kg/d + fractionated irradiation
[13] = 50 ug DM1/kg/d i.v. x5 days, no irradiation
[14] = 50 ug DM1/kg/d x5 days + fRT (5x4 Gy)
[15] = 100 ug DM1/kg/d i.v. x5 days, no irradiation
[16] = 100 ug DM1/kg/d x5 days + fRT (5x4 Gy)

CD44v6, sequence (P16070 386-428 limits assumed): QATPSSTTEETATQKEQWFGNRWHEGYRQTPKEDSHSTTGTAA

In the case of “BIWA 4: Humanised version of antibody VFF-18, CD44v6 specific; light chains SEQ ID NO:4, heavy chains SEQ ID NO:6”, the Kd [1] is reported as 1 nM, the “Toxicity observed after application” value ([2]; i.v. x5 days) is reported as “No toxicity was observed” and the “Body weight during the treatment” value ([2]; irradiated and unirradiated animals, versus PBS group) is reported as “minor and temporary changes without significant differences”. For the same molecule, the “Local tumor control rate at day 120” value [3, 8] was 0/14, the “estimated dose modifying factor” value [3, 8] was 1.2 and the “Growth delay compared with irradiated controls” value ([3]; BIWA 4 7 mg/kg/d + irradiation 20 Gy in 5 fractions) was “slightly but significant longer growth delay”. The “Tumor growth compared with control tumors treated with PBS” value ([3]; BIWA 4 7 mg/kg/d alone, no irradiation) was “did not alter tumor growth”, the “Growth delay to 5 times the starting volume (tν5)” value (shortened to “Growth delay … (tν5)”) [3, 9] was 10,8 d and the “Growth delay to 10 times the starting volume (tV10)” value (from here on “Growth delay … (tV10)”) [3, 9] was 16.0 days. For the same molecule, the “Growth delay … (tν5)” value [3, 10] was 30.5 days, the “Growth delay … (tV10)” value [3, 10] was 40.0 days and the “Antigen binding affinity (comparative)” value [4] was “significantly lower antigen binding affinity as its parent antibody VFF-18”. For the same molecule, the “Biodistribution and tumor uptake in vivo” value [5] was “very favorable biodistribution and tumor uptake in vivo”.

With BIWI 1 the Kd [1] was 1.8 nM, the “Toxicity observed after application” value ([2]; i.v. x5 days) was “No toxicity was observed” and the Tolerability ([2]; i.v. x5 days, irradiated and unirradiated animals) was “well tolerated”. For the same molecule, the “Body weight during the treatment” value ([2]; mouse, in vivo) was “minor and temporary changes without significant differences”, the “tv5 and tv10 compared with irradiated tumors which received PBS or BIWA 4” value ([3]; 50 μg DM1/kg b.w./d + irradiation 20 Gy in 5 fractions) was “clear-cut longer” and the “tv5 compared with controls” value [3, 11] was “did not prolong”. For the same molecule, the “tv10 compared with controls” value [3, 11] was “slightly but significant longer”, the “Effect of combined treatment with fractionated irradiation (radiosensitizing efficacy)” value [3, 12] was “supra-additive” and the “Local tumor control rate at day 120” value [3, 12] was 7 out of 15. For the same molecule, the “estimated dose modifying factor” value [3, 12] was 4.1, the “Local tumor control rate at day 120” value ([3]; 50 μg DM1/kg/d + fractionated irradiation, listed as BIWI1) was 7/15 and the “Growth delay … (tν5)” value [3, 13] was 13.5 days. The “Growth delay … (tV10)” value [3, 13] was 26.0 days, the “Growth delay … (tν5)” value [3, 14] was 107.5 days and the “Growth delay … (tV10)” value [3, 14] was >120 days. For the same molecule, the “tv5 and tv10 compared with irradiated tumors which received PBS or BIWA 4” value ([3]; 100 μg DM1/kg b.w./d + irradiation 20 Gy in 5 fractions) was “significant longer”, the “Tv5 and tv10 compared to controls” value ([3]; 100 μg DM1/kg b.w./d alone, no irradiation) was “substantially and significantly prolonged” and the “estimated dose modifying factor” value ([3]; 100 μg DM1/kg/d + fractionated irradiation) was > 4.5. The “Local tumor control rate at day 120” value ([3]; 100 μg DM1/kg/d + fractionated irradiation, 4 further controlled animals censored earlier) was 6 out of 15 and 6/15, the “Growth delay … (tν5)” value [3, 15] was 27.5 days and the “Growth delay … (tV10)” value [3, 15] was 33.5 days. For the same molecule, the “Growth delay … (tν5)” value [3, 16] was >120 days, the “Growth delay … (tV10)” value [3, 16] was >120 days and the “estimated kill of clonogenic FaDu cells” value ([3]; 5x 100 μg DM1/kg/d alone) was “at least two logs”.

In the case of `COc1cc2cc(c1Cl)N(C)C(=O)C[C@H](OC(=O)[C@H](C)N(C)C(=O)CCS)[C@]1(C)O[C@H]1[C@H](C)[C@@H]1C[C@@](O)(NC(=O)O1)[C@H](OC)/C=C/C=C(\C)C2` [DM1, N^2′-deacetyl-N^2′-(3-mercapto-1-oxopropyl)-Maytansine], the “concentration toxic to cells in vitro” value [6] is given as “approximately 10^−10 M”.

B1: BIWA 4 (antibody, human IgG1, kappa, V domains shown)
VH: EVQLVESGGGLVKPGGSLRLSCAASGFTFSSYDMSWVRQAPGKGLEWVSTISSGGSYTYYLDSIKGRFTISRDNAKNSLYLQMNSLRAEDTAVYYCARQGLDYWGRGTLVTVSS
VL: EIVLTQSPATLSLSPGERATLSCSASSSINYIYWYQQKPGQAPRLLIYLTSNLASGVPARFSGSGSGTDFTLTISSLEPEDFAVYYCLQWSSNPLTFGGGTKVEIKR
With B1 the Kd [7] was 1 nM.

B2: BIWI 1 (antibody, V domains shown)
VH: EVQLVESGGGLVKPGGSLRLSCAASGFTFSSYDMSWVRQAPGKGLEWVSTISSGGSYTYYLDSIKGRFTISRDNAKNSLYLQMNSLRAEDTAVYYCARQGLDYWGRGTLVTVSS
VL: EIVLTQSPATLSLSPGERATLSCSASSSINYIYWYQQKPGQAPRLLIYLTSNLASGVPARFSGSGSGTDFTLTISSLEPEDFAVYYCLQWSSNPLTFGGGTKVEIKR
modifications: maytansinoid DM1 linked by a disulfide bond through the SPP-derived thiopentanoate linker to amino functions of the antibody; DM1/MAb ratio 3.1 (average for the whole antibody; sites not stated)
Work on B2 yielded a Kd [7] of 1.8 nM.
